Results as given in patent US20260262643A1, “HERBICIDAL BENZOXAZINES” (FMC CORPORATION, priority 2022, published 2026).

Experiments:
[1] = tested on: corn; assay: Test C postemergence; assay type: in vivo, Zea mays; conditions: 10 days
Procedure, shortened: (§1)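 Visual injury score, 0–100 (100 = complete control), taken 10 days after treatment relative to untreated controls. Pre: directed spray onto soil over sown seeds. Post: foliar spray at one- to two-leaf stage, 2–10 cm. Solvent/surfactant formulation; loam–sand soil; greenhouse.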

[2] = tested on: wheat; assay: Test C postemergence; assay type: in vivo, Triticum aestivum; conditions: 10 days
Procedure, shortened: as §1

[3] = tested on: blackgrass; assay: Test C preemergence; assay type: in vivo, Alopecurus myosuroides; conditions: for Blackgrass plant response rating: preemergence; for Plant response rating, Blackgrass: Preemergence
Procedure, shortened: as §1

[4] = tested on: galium; assay: Test C postemergence; assay type: in vivo, Galium aparine; conditions: 10 days
Procedure, shortened: as §1

[5] = tested on: sedge, umbrella; assay: Test D flooded paddy test; assay type: in vivo, Cyperus difformis; conditions: 250 g ai/ha, applied to paddy water, visual rating after 13 to 14 days, scale 0 to 100 (0 no effect, 100 complete control)
Procedure, shortened: (§2)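 Plants at the 2-leaf stage were grown in pots flooded to 3 cm, and compound was applied directly into the paddy water, with depth kept throughout. After 13–14 days in a greenhouse, injury was rated visually against untreated controls on a 0–100 scale (100 = complete control); a dash means not tested.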

[6] = tested on: kochia; assay: Test C postemergence; assay type: in vivo, Bassia scoparia; conditions: 10 days
Procedure, shortened: as §1

[7] = tested on: ryegrass, Italian; assay: Test C postemergence; assay type: in vivo, Lolium multiflorum; conditions: 10 days
Procedure, shortened: as §1

[8] = tested on: barnyardgrass; assay: Test C postemergence; assay type: in vivo, Echinochloa crusgalli; conditions: 10 days
Procedure, shortened: as §1

[9] = tested on: kochia; assay: Test C preemergence; assay type: in vivo, Bassia scoparia; conditions: for Kochia plant response rating: preemergence; for Plant response rating, Kochia: Preemergence
Procedure, shortened: as §1

[10] = tested on: ragweed; assay: Test C postemergence; assay type: in vivo, Ambrosia artemisiifolia; conditions: 10 days
Procedure, shortened: as §1

[11] = tested on: wheat; assay: Test C preemergence; assay type: in vivo, Triticum aestivum; conditions: for Wheat plant response rating: preemergence; for Plant response rating, Wheat: Preemergence
Procedure, shortened: as §1

[12] = tested on: oat, wild; assay: Test C postemergence; assay type: in vivo, Avena fatua; conditions: 10 days
Procedure, shortened: as §1

[13] = tested on: soybean; assay: Test C postemergence; assay type: in vivo, Glycine max; conditions: 10 days
Procedure, shortened: as §1

[14] = tested on: ragweed; assay: Test C preemergence; assay type: in vivo, Ambrosia artemisiifolia; conditions: for Ragweed plant response rating: preemergence; for Plant response rating, Ragweed: Preemergence
Procedure, shortened: as §1

[15] = tested on: blackgrass; assay: Test C postemergence; assay type: in vivo, Alopecurus myosuroides; conditions: 10 days
Procedure, shortened: as §1

[16] = tested on: barnyardgrass; assay: Test C preemergence; assay type: in vivo, Echinochloa crusgalli; conditions: for Barnyardgrass plant response rating: preemergence; for Plant response rating, Barnyardgrass: Preemergence
Procedure, shortened: as §1

[17] = tested on: ducksalad; assay: Test D flooded paddy test; assay type: in vivo, Heteranthera limosa; conditions: 250 g ai/ha, applied to paddy water, visual rating after 13 to 14 days, scale 0 to 100 (0 no effect, 100 complete control)
Procedure, shortened: as §2

[18] = tested on: barnyardgrass; assay: Test D flooded paddy test; assay type: in vivo, Echinochloa crus-galli; conditions: 250 g ai/ha, applied to paddy water, visual rating after 13 to 14 days, scale 0 to 100 (0 no effect, 100 complete control)
Procedure, shortened: as §2

[19] = tested on: oat, wild; assay: Test C preemergence; assay type: in vivo, Avena fatua; conditions: for Oat, Wild plant response rating: preemergence; for Plant response rating, Oat, Wild: Preemergence
Procedure, shortened: as §1

[20] = tested on: ryegrass, Italian; assay: Test C preemergence; assay type: in vivo, Lolium multiflorum; conditions: for Ryegrass, Italian plant response rating: preemergence; for Plant response rating, Ryegrass, Italian: Preemergence
Procedure, shortened: as §1

[21] = tested on: rice; assay: Test D flooded paddy test; assay type: in vivo, Oryza sativa; conditions: 250 g ai/ha, applied to paddy water, visual rating after 13 to 14 days, scale 0 to 100 (0 no effect, 100 complete control)
Procedure, shortened: as §2

[22] = tested on: pigweed, palmer; assay: Test C postemergence; assay type: in vivo, Amaranthus palmeri; conditions: 10 days
Procedure, shortened: as §1

[23] = tested on: horseweed; assay: Test C postemergence; assay type: in vivo, Erigeron canadensis; conditions: 10 days
Procedure, shortened: as §1

[24] = tested on: corn; assay: Test C preemergence; assay type: in vivo, Zea mays; conditions: for Corn plant response rating: preemergence; for Plant response rating, Corn: Preemergence
Procedure, shortened: as §1

[25] = tested on: green foxtail; assay: Test C postemergence; assay type: in vivo, Setaria viridis; conditions: 10 days
Procedure, shortened: as §1

[26] = tested on: soybean; assay: Test C preemergence; assay type: in vivo, Glycine max; conditions: for Soybean plant response rating: preemergence; for Plant response rating, Soybean: Preemergence
Procedure, shortened: as §1

[27] = tested on: pigweed, palmer; assay: Test C preemergence; assay type: in vivo, Amaranthus palmeri; conditions: for Pigweed, Palmer plant response rating: preemergence; for Plant response rating, Pigweed, Palmer: Preemergence
Procedure, shortened: as §1

[28] = tested on: green foxtail; assay: Test C preemergence; assay type: in vivo, Setaria viridis; conditions: for Foxtail, Green plant response rating: preemergence; for Plant response rating, Foxtail, Green: Preemergence
Procedure, shortened: as §1

[29] = 500 g ai/ha, postemergence, 0 to 100 scale (0 no effect, 100 complete control)
[30] = Postemergence, 125 g ai/ha, 0 to 100 scale (0 no effect, 100 complete control)
[31] = 500 g ai/ha, 0 to 100 scale (0 no effect, 100 complete control)
[32] = 125 g ai/ha, 0 to 100 scale, 0 no effect, 100 complete control
[33] = 125 g ai/ha, postemergence, 0 to 100 scale, 0 no effect, 100 complete control
[34] = Postemergence, 500 g ai/ha, visual 0 to 100 scale (0 no effect, 100 complete control)
[35] = 500 g ai/ha, visual rating after 10 days, 0 to 100 scale (0 no effect, 100 complete control)
[36] = Test C, 125 g ai/ha, 0 to 100 scale (0 no effect, 100 complete control)

CCOCC1CN(C(=O)c2cc(-n3cnc(C4CCC4)n3)ccc2OC)c2cccc(Cl)c2O1 (stereo not drawn) [Compound 377]
15: Plant response rating, Ducksalad (Flood) [17]
70: Plant response rating, Kochia [9, 32] | Ragweed plant response rating [14, 31] | Ryegrass, Italian plant response rating [20, 31]
90: Plant response rating, Kochia [6, 29] | Plant response rating, Kochia [6, 30] | Plant response rating, Ragweed [10, 29] | Plant response rating, Pigweed, Palmer [22, 30] | Soybean plant response rating [26, 31]
55: Plant response rating, Sedge, Umbrella (Flood) [5]
20: Plant response rating, Corn [1, 30] | Plant response rating, Wheat [2, 30] | Blackgrass plant response rating [3, 31] | Wheat plant response rating [11, 31] | Plant response rating, Blackgrass [15, 29] | Oat, Wild plant response rating [19, 31] | Plant response rating, Oat, Wild [19, 32] | Corn plant response rating [24, 31] | Plant response rating, Foxtail, Green [25, 30]
50: Plant response rating, Ryegrass, Italian [7, 29] | Plant response rating, Barnyardgrass [8, 29] | Plant response rating, Horseweed [23, 30] | Plant response rating, Foxtail, Green [28, 32]
40: Plant response rating, Ryegrass, Italian [7, 30] | Plant response rating, Barnyardgrass [16, 32] | Plant response rating, Foxtail, Green [25, 29]
60: Plant response rating, Ryegrass, Italian [20, 32] | Plant response rating, Soybean [26, 32]
0: Plant response rating, Blackgrass [3, 32] | Plant response rating, Wheat [11, 32] | Plant response rating, Oat, Wild [12, 29] | Plant response rating, Oat, Wild [12, 30] | Plant response rating, Blackgrass [15, 30] | Plant response rating, Barnyardgrass (Flood) [18] | Plant response rating, Rice (Flood) [21] | Plant response rating, Corn [24, 32]
80: Plant response rating, Ragweed [10, 30]
30: Plant response rating, Corn [1, 29] | Plant response rating, Wheat [2, 29] | Plant response rating, Barnyardgrass [8, 30] | Plant response rating, Ragweed [14, 32] | Plant response rating, Horseweed [23, 29]
100: Plant response rating, Galium [4, 29] | Plant response rating, Galium [4, 30] | Kochia plant response rating [9, 31] | Plant response rating, Soybean [13, 29] | Plant response rating, Soybean [13, 30] | Barnyardgrass plant response rating [16, 31] | Plant response rating, Pigweed, Palmer [22, 29] | Pigweed, Palmer plant response rating [27, 31] | Plant response rating, Pigweed, Palmer [27, 32] | Foxtail, Green plant response rating [28, 31]

COc1ccc(-n2cncn2)cc1C(=O)N1C[C@H](C)Oc2ccccc21 [Compound 228]
95: Plant response rating, Sedge, Umbrella (Flood) [5]
20: Wheat plant response rating [11, 36]
90: Plant response rating, Wheat [2, 34] | Plant response rating, Blackgrass [3, 35] | Plant response rating, Barnyardgrass [8, 34] | Plant response rating, Blackgrass [15, 34] | Barnyardgrass plant response rating [16, 36] | Plant response rating, Oat, Wild [19, 35] | Plant response rating, Ryegrass, Italian [20, 35] | Ryegrass, Italian plant response rating [20, 36] | Plant response rating, Pigweed, Palmer [22, 34] | Plant response rating, Foxtail, Green [25, 34] | Plant response rating, Soybean [26, 35]
50: Plant response rating, Wheat [2, 33] | Plant response rating, Kochia [6, 33] | Plant response rating, Ragweed [14, 35]
15: Plant response rating, Barnyardgrass (Flood) [18]
0: Kochia plant response rating [9, 36]
100: Plant response rating, Galium [4, 33] | Plant response rating, Galium [4, 34] | Plant response rating, Ryegrass, Italian [7, 33] | Plant response rating, Ryegrass, Italian [7, 34] | Plant response rating, Soybean [13, 33] | Plant response rating, Soybean [13, 34] | Plant response rating, Barnyardgrass [16, 35] | Plant response rating, Pigweed, Palmer [27, 35] | Pigweed, Palmer plant response rating [27, 36] | Plant response rating, Foxtail, Green [28, 35] | Foxtail, Green plant response rating [28, 36]
10: Plant response rating, Ragweed [10, 33] | Plant response rating, Horseweed [23, 33] | Corn plant response rating [24, 36]
70: Plant response rating, Kochia [6, 34] | Plant response rating, Pigweed, Palmer [22, 33] | Soybean plant response rating [26, 36]
60: Plant response rating, Barnyardgrass [8, 33] | Plant response rating, Kochia [9, 35] | Plant response rating, Corn [24, 35]
80: Plant response rating, Corn [1, 34] | Blackgrass plant response rating [3, 36] | Plant response rating, Oat, Wild [12, 34] | Plant response rating, Blackgrass [15, 33] | Plant response rating, Ducksalad (Flood) [17]
25: Plant response rating, Rice (Flood) [21]
40: Plant response rating, Corn [1, 33] | Ragweed plant response rating [14, 36] | Oat, Wild plant response rating [19, 36]
30: Plant response rating, Ragweed [10, 34] | Plant response rating, Wheat [11, 35] | Plant response rating, Oat, Wild [12, 33] | Plant response rating, Horseweed [23, 34] | Plant response rating, Foxtail, Green [25, 33]

CC(=O)N(C)c1ncn(-c2cccc(C(=O)N3C[C@H](C)Oc4c(C)cccc43)c2)n1 [Compound 336]
20: Plant response rating, Corn [1, 30] | Plant response rating, Ragweed [10, 30] | Plant response rating, Barnyardgrass [16, 32] | Plant response rating, Pigweed, Palmer [22, 30] | Corn plant response rating [24, 31] | Plant response rating, Foxtail, Green [25, 30]
100: Plant response rating, Soybean [13, 29] | Barnyardgrass plant response rating [16, 31] | Foxtail, Green plant response rating [28, 31]
60: Plant response rating, Corn [1, 29] | Plant response rating, Galium [4, 30] | Plant response rating, Kochia [6, 30] | Plant response rating, Barnyardgrass [8, 29] | Plant response rating, Foxtail, Green [25, 29]
0: Plant response rating, Sedge, Umbrella (Flood) [5] | Plant response rating, Kochia [9, 32] | Plant response rating, Wheat [11, 32] | Ragweed plant response rating [14, 31] | Plant response rating, Ragweed [14, 32] | Plant response rating, Barnyardgrass (Flood) [18] | Plant response rating, Oat, Wild [19, 32] | Plant response rating, Rice (Flood) [21] | Plant response rating, Horseweed [23, 29] | Plant response rating, Horseweed [23, 30] | Plant response rating, Corn [24, 32] | Plant response rating, Soybean [26, 32]
40: Plant response rating, Wheat [2, 29] | Blackgrass plant response rating [3, 31] | Wheat plant response rating [11, 31]
70: Plant response rating, Oat, Wild [12, 29] | Plant response rating, Ryegrass, Italian [20, 32] | Plant response rating, Pigweed, Palmer [22, 29]
90: Plant response rating, Galium [4, 29] | Kochia plant response rating [9, 31] | Plant response rating, Blackgrass [15, 29] | Ryegrass, Italian plant response rating [20, 31] | Pigweed, Palmer plant response rating [27, 31]
10: Plant response rating, Wheat [2, 30] | Plant response rating, Barnyardgrass [8, 30] | Plant response rating, Ragweed [10, 29] | Plant response rating, Oat, Wild [12, 30] | Plant response rating, Pigweed, Palmer [27, 32]
50: Plant response rating, Ryegrass, Italian [7, 30]
30: Plant response rating, Blackgrass [3, 32] | Plant response rating, Blackgrass [15, 30] | Oat, Wild plant response rating [19, 31] | Soybean plant response rating [26, 31]
80: Plant response rating, Kochia [6, 29] | Plant response rating, Ryegrass, Italian [7, 29] | Plant response rating, Soybean [13, 30] | Plant response rating, Foxtail, Green [28, 32]
25: Plant response rating, Ducksalad (Flood) [17]
